Results as given in US20250311727A1, “SUBSTITUTED 2-AMINOAZINES AND SALTS THEREOF, AND USE THEREOF AS HERBICIDAL ACTIVE SUBSTANCES” (BAYER AKTIENGESELLSCHAFT, priority 2022, published 2025).

Assays:
Assay type in all cases: in vivo
Veronica persica [1] = test: Post-emergence herbicidal efficacy at 80 g/ha, VERPE; conditions: rated visually after about 3 weeks vs untreated controls, 100% = plants have died
Method in brief: (§1)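 Visual rating against untreated plants, about 3 weeks after treatment, on a 0–100% scale where 100% means dead plants. Compounds were formulated as WP or EC with 0.5% additive and applied at 600 l/ha water onto one-leaf-stage greenhouse weeds, sown 2–3 weeks earlier in sandy loam.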

Digitaria sanguinalis [2] = test: Pre-emergence herbicide efficacy at 320 g/ha, DIGSA; conditions: scored visually after about 3 weeks vs untreated controls, 100% = plants have died
Method in brief: (§2)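 Visual scores, given as percent of untreated controls (0% = no effect, 100% = dead plants), were taken about 3 weeks after treatment under greenhouse conditions. Treatment was a pre-emergence soil-surface application of WP or EC formulation at 320 g/ha, made up in 600 L/ha water plus 0.5% additive, over seeds covered in sandy loam.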

Echinochloa crus-galli [3] = test: Post-emergence herbicidal efficacy at 320 g/ha, ECHCG; conditions: rated visually after about 3 weeks vs untreated controls, 100% = plants have died
Method in brief: (§3)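 One-leaf-stage weeds, sandy loam pots, greenhouse; foliar spray of WP/EC, 0.5% additive, 600 L/ha water; visual rating at ~3 wk, 0–100% vs untreated.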

Matricaria inodora [4] = test: Pre-emergence herbicide efficacy at 320 g/ha, MATIN; conditions: scored visually after about 3 weeks vs untreated controls, 100% = plants have died
Method in brief: as §2

Echinochloa crus-galli [5] = test: Pre-emergence herbicide efficacy at 320 g/ha, ECHCG; conditions: scored visually after about 3 weeks vs untreated controls, 100% = plants have died
Method in brief: as §2

Digitaria sanguinalis [6] = test: Post-emergence herbicidal efficacy at 320 g/ha, DIGSA; conditions: rated visually after about 3 weeks vs untreated controls, 100% = plants have died
Method in brief: as §3

Stellaria media [7] = test: Post-emergence herbicidal efficacy at 320 g/ha, STEME; conditions: rated visually after about 3 weeks vs untreated controls, 100% = plants have died
Method in brief: as §3

Amaranthus retroflexus [8] = test: Pre-emergence herbicide efficacy at 320 g/ha, AMARE; conditions: scored visually after about 3 weeks vs untreated controls, 100% = plants have died
Method in brief: as §2

Veronica persica [9] = test: Pre-emergence herbicide efficacy at 320 g/ha, VERPE; conditions: scored visually after about 3 weeks vs untreated controls, 100% = plants have died
Method in brief: as §2

Kochia scoparia [10] = test: Pre-emergence herbicide efficacy at 320 g/ha, KCHSC; conditions: scored visually after about 3 weeks vs untreated controls, 100% = plants have died
Method in brief: as §2

Poa annua [11] = test: Pre-emergence herbicide efficacy at 320 g/ha, POAAN; conditions: scored visually after about 3 weeks vs untreated controls, 100% = plants have died
Method in brief: as §2

Echinochloa crus-galli [12] = test: Pre-emergence herbicide efficacy at 80 g/ha, ECHCG; conditions: scored visually after about 3 weeks vs untreated controls, 100% = plants have died
Source text: (§4) Unwanted plants/weeds: • ABUTH: Abutilon theophrasti • ALOMY: Alopecurus myosuroides • AMARE: Amaranthus retroflexus • DIGSA: Digitaria sanguinalis • ECHCG: Echinochloa crus-galli • KCHSC: Kochia scoparia • LOLRI: Lolium rigidum • MATIN: Matricaria inodora • POAAN: Poa annua • POLCO: Polygonum convolvulus • SETVI: Setaria viridis • STEME: Stellaria media • VERPE: Veronica persica • VIOTR: Viola tricolor A. Post-Emergence Herbicidal Efficacy at 320 g/ha
(§5) Seeds of monocotyledonous and dicotyledonous weed plants and crop plants were placed in plastic or organic planting pots and covered with soil. The compounds of the invention, formulated in the form of wettable powders (WP) or as emulsion concentrates (EC), were then applied to the surface of the covering soil as aqueous suspension or emulsion with addition of 0.5% additive at a water application rate equivalent to 600 l/ha. After the treatment, the pots were placed in a greenhouse and kept under good growth conditions for the test plants. After about 3 weeks, the efficacy of the preparations was scored visually in comparison with untreated controls as percentages. For example, 100% activity=the plants have died, 0% activity=like control plants.
(§6) Tables D1 to D12 below show the effects of selected compounds of the general formula (I) according to Table 1 on various harmful plants and an application rate corresponding to 80 g/ha, which were obtained by the experimental procedure mentioned above.

Viola tricolor [13] = test: Post-emergence herbicidal efficacy at 80 g/ha, VIOTR; conditions: rated visually after about 3 weeks vs untreated controls, 100% = plants have died
Source text: as §4
Seeds of monocotyledonous and dicotyledonous weeds and crop plants were placed in sandy loam in plastic or organic planting pots, covered with soil and cultivated in a greenhouse under controlled growth conditions. 2 to 3 weeks after sowing, the test plants were treated at the one-leaf stage. The compounds of the invention, formulated in the form of wettable powders (WP) or as emulsion concentrates (EC), were then sprayed onto the green parts of the plants as aqueous suspension or emulsion with addition of 0.5% additive at a water application rate of 600 l/ha (converted). After the test plants had been kept in the greenhouse under optimum growth conditions for about 3 weeks, the activity of the preparations was rated visually in comparison to untreated controls. For example, 100% activity=the plants have died, 0% activity=like control plants.
Tables B1 to B11 below show the effects of selected compounds of the general formula (I) according to Table 1 on various harmful plants and an application rate corresponding to 80 g/ha, which were obtained by the experimental procedure mentioned above.

Digitaria sanguinalis [14] = test: Pre-emergence herbicide efficacy at 80 g/ha, DIGSA; conditions: scored visually after about 3 weeks vs untreated controls, 100% = plants have died
Method in brief: (§7)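 Visual % activity scored after roughly 3 weeks in the greenhouse against untreated pots, 100% meaning dead plants and 0% like controls. Treatment was soil-surface application right after sowing, at 80 g/ha. Formulated as WP or EC in water at 600 l/ha with 0.5% additive.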

Kochia scoparia [15] = test: Post-emergence herbicidal efficacy at 320 g/ha, KCHSC; conditions: rated visually after about 3 weeks vs untreated controls, 100% = plants have died
Method in brief: as §3

Setaria viridis [16] = test: Post-emergence herbicidal efficacy at 320 g/ha, SETVI; conditions: rated visually after about 3 weeks vs untreated controls, 100% = plants have died
Method in brief: as §3

Abutilon theophrasti [17] = test: Pre-emergence herbicide efficacy at 320 g/ha, ABUTH; conditions: scored visually after about 3 weeks vs untreated controls, 100% = plants have died
Method in brief: as §2

Matricaria inodora [18] = test: Pre-emergence herbicide efficacy at 80 g/ha, MATIN; conditions: scored visually after about 3 weeks vs untreated controls, 100% = plants have died
Source text: as §4, §5, §6

Veronica persica [19] = test: Post-emergence herbicidal efficacy at 320 g/ha, VERPE; conditions: rated visually after about 3 weeks vs untreated controls, 100% = plants have died
Method in brief: as §3

Viola tricolor [20] = test: Pre-emergence herbicide efficacy at 80 g/ha, VIOTR
Method in brief: as §7

Abutilon theophrasti [21] = test: Post-emergence herbicidal efficacy at 320 g/ha, ABUTH; conditions: rated visually after about 3 weeks vs untreated controls, 100% = plants have died
Method in brief: as §3

Poa annua [22] = test: Post-emergence herbicidal efficacy at 320 g/ha, POAAN; conditions: rated visually after about 3 weeks vs untreated controls, 100% = plants have died
Method in brief: as §3

Veronica persica [23] = test: Pre-emergence herbicide efficacy at 80 g/ha, VERPE
Source text: as §4, §5, §6

Kochia scoparia [24] = test: Pre-emergence herbicide efficacy at 80 g/ha, KCHSC; conditions: scored visually after about 3 weeks vs untreated controls, 100% = plants have died
Method in brief: as §7

Setaria viridis [25] = test: Pre-emergence herbicide efficacy at 80 g/ha, SETVI
Method in brief: as §7

Kochia scoparia [26] = test: Post-emergence herbicidal efficacy at 80 g/ha, KCHSC; conditions: rated visually after about 3 weeks vs untreated controls, 100% = plants have died
Method in brief: as §1

Stellaria media [27] = test: Pre-emergence herbicide efficacy at 320 g/ha, STEME; conditions: scored visually after about 3 weeks vs untreated controls, 100% = plants have died
Method in brief: as §2

Amaranthus retroflexus [28] = test: Post-emergence herbicidal efficacy at 80 g/ha, AMARE; conditions: rated visually after about 3 weeks vs untreated controls, 100% = plants have died
Method in brief: as §1

Amaranthus retroflexus [29] = test: Pre-emergence herbicide efficacy at 80 g/ha, AMARE; conditions: scored visually after about 3 weeks vs untreated controls, 100% = plants have died
Method in brief: as §7

Lolium rigidum = test: Pre-emergence herbicide efficacy at 320 g/ha, LOLRI; conditions: scored visually after about 3 weeks vs untreated controls, 100% = plants have died
Source text: as §4
Seeds of mono- and dicotyledonous weed plants were placed in plastic pots in sandy loam soil (doubly sown with one species each of mono- or dicotyledonous weed plants per pot) and covered with soil. The compounds of the invention, formulated in the form of wettable powders (WP) or as emulsion concentrates (EC), were then applied to the surface of the covering soil as aqueous suspension or emulsion with addition of 0.5% additive at a water application rate of 600 litres per hectare (converted). After the treatment, the pots were placed in a greenhouse and kept under good growth conditions for the test plants. After about 3 weeks, the efficacy of the preparations was scored visually in comparison with untreated controls as percentages.
For example, 100% activity=the plants have died, 0% activity=like control plants.
Tables C1 to C12 below show the effects of selected compounds of the general formula (I) according to Table 1 on various harmful plants and at an application rate corresponding to 320 g/ha, which were obtained by the trial procedure specified above.

Amaranthus retroflexus [30] = test: Post-emergence herbicidal efficacy at 320 g/ha, AMARE; conditions: rated visually after about 3 weeks vs untreated controls, 100% = plants have died
Method in brief: as §3

Polygonum convolvulus = test: Pre-emergence herbicide efficacy at 80 g/ha, POLCO; conditions: scored visually after about 3 weeks vs untreated controls, 100% = plants have died
Source text: as §4, §5, §6

Setaria viridis [31] = test: Pre-emergence herbicide efficacy at 320 g/ha, SETVI; conditions: scored visually after about 3 weeks vs untreated controls, 100% = plants have died
Method in brief: as §2

N#Cc1cccc(Nc2ncc(F)cn2)c1-n1cc(C(F)(F)F)cn1 [Example 1-60]
Post-emergence efficacy at 80 g/ha against VERPE in % (Veronica persica [1]): 100%
Pre-emergence efficacy at 320 g/ha against DIGSA in % (Digitaria sanguinalis [2]): 100%
Post-emergence efficacy at 320 g/ha against ECHCG in % (Echinochloa crus-galli [3]): 100%
Pre-emergence efficacy at 320 g/ha against MATIN in % (Matricaria inodora [4]): 100%
Pre-emergence efficacy at 320 g/ha against ECHCG in % (Echinochloa crus-galli [5]): 90%
Post-emergence efficacy at 320 g/ha against DIGSA in % (Digitaria sanguinalis [6]): 90%
Post-emergence efficacy at 320 g/ha against STEME in % (Stellaria media [7]): 100%
Pre-emergence efficacy at 320 g/ha against AMARE in % (Amaranthus retroflexus [8]): 100%
Pre-emergence efficacy at 320 g/ha against VERPE in % (Veronica persica [9]): 100%
Pre-emergence efficacy at 320 g/ha against KCHSC in % (Kochia scoparia [10]): 100%
Pre-emergence efficacy at 320 g/ha against POAAN in % (Poa annua [11]): 100%
Pre-emergence efficacy at 80 g/ha against ECHCG in % (Echinochloa crus-galli [12]): 80%
Post-emergence efficacy at 80 g/ha against VIOTR in % (Viola tricolor [13]): 90%
Pre-emergence efficacy at 80 g/ha against DIGSA in % (Digitaria sanguinalis [14]): 100%
Post-emergence efficacy at 320 g/ha against KCHSC in % (Kochia scoparia [15]): 100%
Post-emergence efficacy at 320 g/ha against SETVI in % (Setaria viridis [16]): 90%
Pre-emergence efficacy at 320 g/ha against ABUTH in % (Abutilon theophrasti [17]): 90%
Pre-emergence efficacy at 80 g/ha against MATIN in % (Matricaria inodora [18]): 100%
Post-emergence efficacy at 320 g/ha against VERPE in % (Veronica persica [19]): 100%
Pre-emergence efficacy against VIOTR (Viola tricolor [20]): 100%
Post-emergence efficacy at 320 g/ha against ABUTH in % (Abutilon theophrasti [21]): 90%
Post-emergence efficacy at 320 g/ha against POAAN in % (Poa annua [22]): 100%
Pre-emergence efficacy against VERPE (Veronica persica [23]): 80%
Pre-emergence efficacy at 80 g/ha against KCHSC in % (Kochia scoparia [24]): 100%
Pre-emergence efficacy against SETVI (Setaria viridis [25]): 100%
Post-emergence efficacy at 80 g/ha against KCHSC in % (Kochia scoparia [26]): 100%
Pre-emergence efficacy at 320 g/ha against STEME in % (Stellaria media [27]): 100%
Post-emergence efficacy at 80 g/ha against AMARE in % (Amaranthus retroflexus [28]): 90%
Pre-emergence efficacy at 80 g/ha against AMARE in % (Amaranthus retroflexus [29]): 100%
Pre-emergence efficacy at 320 g/ha against LOLRI in % (Lolium rigidum): 90%
Post-emergence efficacy at 320 g/ha against AMARE in % (Amaranthus retroflexus [30]): 100%
Pre-emergence efficacy at 80 g/ha against POLCO in % (Polygonum convolvulus): 100%
Pre-emergence efficacy at 320 g/ha against SETVI in % (Setaria viridis [31]): 90%
